The target in the assay is Amyloid-beta precursor protein (Homo sapiens, UniProt P05067). Nature of the assay: Binding affinity to human beta amyloid plaque in alzheimer's disease patient brain.

The structures appear in SMILES notation.

Chain of Amyloid-beta precursor protein (P05067 whole entry): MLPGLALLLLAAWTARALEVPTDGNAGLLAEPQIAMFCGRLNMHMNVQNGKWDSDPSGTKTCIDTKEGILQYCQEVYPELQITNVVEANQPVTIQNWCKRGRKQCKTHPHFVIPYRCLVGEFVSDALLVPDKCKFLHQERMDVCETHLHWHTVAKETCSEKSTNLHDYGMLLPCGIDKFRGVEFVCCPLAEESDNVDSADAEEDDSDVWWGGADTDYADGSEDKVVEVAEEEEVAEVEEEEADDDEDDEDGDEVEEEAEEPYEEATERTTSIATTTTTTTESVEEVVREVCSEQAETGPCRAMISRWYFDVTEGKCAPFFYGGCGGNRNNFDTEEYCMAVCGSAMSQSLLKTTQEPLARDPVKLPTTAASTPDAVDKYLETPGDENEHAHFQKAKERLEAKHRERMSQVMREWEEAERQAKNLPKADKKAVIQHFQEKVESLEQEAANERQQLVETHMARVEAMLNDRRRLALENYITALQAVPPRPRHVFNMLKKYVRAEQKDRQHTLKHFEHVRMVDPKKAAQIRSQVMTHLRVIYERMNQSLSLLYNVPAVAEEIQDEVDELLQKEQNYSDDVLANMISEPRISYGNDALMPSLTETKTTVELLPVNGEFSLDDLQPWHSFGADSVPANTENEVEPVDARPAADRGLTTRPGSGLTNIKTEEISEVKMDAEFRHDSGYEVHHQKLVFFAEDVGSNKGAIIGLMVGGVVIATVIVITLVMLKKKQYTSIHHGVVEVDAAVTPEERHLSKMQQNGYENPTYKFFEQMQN

A word on the Ki: it is a measure of affinity in units of concentration, obtained from inhibition or displacement. High values mean lower affinity, low ones higher affinity. `CNc1ccc(-c2cn3cc(Br)ccc3n2)cc1C` yielded a Ki of more than 1000 nM. Under `CN(C)c1ccc(-c2cn3cc(Br)cc(I)c3n2)cc1` stands 183 nM; under `CN(C)c1ccc(-c2cn3cc(Br)cc(C#N)c3n2)cc1`, more than 180 nM. Under `CC(=O)N(C)c1ccc(-c2cn3cc(Br)ccc3n2)cc1C` stands more than 1000 nM; under `CNc1ccc(-c2cn3cc(SCC(N)=O)ccc3n2)cc1C`, more than 1000 nM; under `CNc1ccc(-c2cn3cc(SCCO)ccc3n2)cc1C`, more than 1000 nM. In turn, `CN(C(=O)C(F)(F)F)c1ccc(-c2cn3cc(Br)ccc3n2)cc1Br` had a Ki of more than 1000 nM. Under `Cc1cc(-c2cn3cc(Br)ccc3n2)ccc1NC(=O)C(F)(F)F` stands more than 1000 nM.
